Key:
CXCR2 = CXCR2 (Homo sapiens (Human), UniProt P25025); experiment: PathHunter CXCR2 β-arrestin cell assay, antagonism of CXCL8 (EC80); format: cell-based; conditions: PathHunter CXCR2 β-arrestin cells, CXCL8 agonist at EC80
Procedure: The IC50 values were determined to evaluate the antagonistic activity of the test compounds against CXCR2.
PathHunter® CXCR2 β-arrestin cells (DiscoverX) were grown under normal conditions and seeded on a white-walled 384-microwell plate at 20 μL/well. Before testing, the cells were incubated at 37° C. for an appropriate time. The test compounds were serially diluted in DMSO at a three-fold dilution factor to obtain 8 serially diluted test compounds. Shortly before the test, the above serially diluted test compounds were further diluted with test buffer to 5 times the test concentration. 5 μL of the further diluted test compounds was added to the cells and then the cells were incubated at 37° C. for 30 minutes. The vehicle concentration was 1%. 5 μL of 6×EC80 agonist (CXCL8) buffer was added to the cells and then the cells were incubated at 37° C. for 90 minutes. 15 μL (50% v/v) of PathHunter detection reagent mixture was added in one portion, followed by one-hour incubation to generate the test signal. The microplates were read on a PerkinElmer Envision™ instrument for chemiluminescence signal. The biological activity of the test compounds was analyzed by CBIS data analysis suite (ChemInnovation, CA) and shown as IC50 values.

[1] = Pharmacokinetic evaluation in C57BL/6 mice; format: in vivo; conditions: male, mouse, plasma; for clearance / half-life / AUC: intravenous 1 mpk / gavage 5 mpk study; for half-life: read-out: Half-life T1/2 (converted); for AUC: route not stated, unit printed shifted under first column, read-out: Area under the drug concentration time curve (AUC); for bioavailability: po, 5 mg/kg, gavage 5 mpk vs intravenous 1 mpk, read-out: Bioavailability (F)
Procedure: The pharmacokinetic parameters of the compounds in C57BL/6 mice were investigated.
C57BL/6 mice (male, 18-30 g, 7-9 weeks old, Shanghai Lingchang Biotechnology Co., Ltd.)
Formulations containing an aqueous solution of 1% DMSO/10% hydroxypropyl-β-cyclodextrin as the vehicle were administered by intravenous injection (1 mpk), formulations containing an aqueous solution of 1% DMSO/1% hydroxypropyl methylcellulose/0.2% Tween 80 as the vehicle were administered by gavage (5 mpk). Before the animal experiment, all animals were fasted, and fed 4 hours after administration; all animals were free to drink water. The time points of blood collection: intravenous injection administration group: 0.083, 0.25, 0.5, 1, 2, 4, 6, 8 and 24 hours; gavage administration group: 0.25, 0.5, 1, 2, 4, 6, 8 and 24 hours.
(§1) Whole blood samples (0.03 mL) were collected through the saphenous vein (or other suitable blood collection sites) at the prescribed time points, and all blood samples were added to labeled plastic centrifuge tubes containing K2-EDTA anticoagulant. After the blood samples were collected, the plasma was isolated by centrifugation, immediately placed in dry ice and stored at low temperature. All samples were analyzed by LC-MS/MS with a minimum detection limit of 2 nM. The non-compartmental model of WinNonlin™ Version 6.3 (Pharsight, Mountain View, Calif.) pharmacokinetic software was used to process the mean plasma concentration, and the linear-log trapezoid method was used to calculate the pharmacokinetic parameters.

[2] = Pharmacokinetic and tissue distribution in Lewis rats; format: in vivo; conditions: male, rat, lung / plasma, oral, 5 mg/kg, gavage 5 mpk, read-out: Ratio in lung blood
Procedure: The pharmacokinetic and tissue distribution of the compounds in Lewis rats was tested.
Lewis rats (male, 202-239 g, 7-9 weeks old, Beijing Viton Lihua)
Formulations containing an aqueous solution of 1% hydroxypropyl methylcellulose/0.2% Tween 80 as the vehicle were administered by gavage (5 mpk). Before the animal experiment, all animals were fasted overnight, and fed 4 hours after administration; all animals were free to drink water. The time points of blood collection: danirixin administration group: 0.25, 1, 8 hours; gavage administration group: 0.5, 1, 4 hours.
as §1, with “(0.2” for “(0.03”, “separated” for “isolated”, “log-linear” for “linear-log”

CXCR2, sequence (P25025 whole entry): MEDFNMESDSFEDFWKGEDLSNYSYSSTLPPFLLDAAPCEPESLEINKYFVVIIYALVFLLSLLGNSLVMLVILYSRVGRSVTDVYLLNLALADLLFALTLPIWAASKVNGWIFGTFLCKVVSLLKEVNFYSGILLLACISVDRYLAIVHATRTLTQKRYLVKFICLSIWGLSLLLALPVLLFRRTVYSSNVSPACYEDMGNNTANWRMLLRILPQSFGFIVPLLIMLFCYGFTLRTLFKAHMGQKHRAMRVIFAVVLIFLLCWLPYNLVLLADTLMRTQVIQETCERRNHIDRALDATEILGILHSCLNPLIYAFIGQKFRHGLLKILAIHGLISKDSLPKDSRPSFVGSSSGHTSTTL

| SMILES | IC50 (CXCR2) [nM] | further results |
| --- | --- | --- |
| CC(C)(Cc1ccccc1)S(=O)(=O)c1c(Cl)ccc(NC(=O)N[C@H]2CCCc3ccoc32)c1O (single isomer, unassigned) [WX020A] | 177 | – |
| O=C(Nc1ccc(Cl)c(S(=O)(=O)C2CC3(CNC3)C2)c1O)NC1CCCc2ccoc21 (single isomer, unassigned) [WX021A] | 720 | – |
| O=C(Nc1ccc(Cl)c(S(=O)(=O)C2CC3(CCNCC3)C2)c1O)N[C@H]1CCCc2ccoc21 (single isomer, unassigned) [WX022A] | 366 | – |
| O=C(Nc1ccc(Cl)c(S(=O)(=O)C2CCNCC2)c1O)N[C@H]1CCCc2ccoc21 (single isomer, unassigned) [WX023A] | 36 | – |
| O=C(Nc1ccc(Cl)c(S(=O)(=O)C2CCCNC2)c1O)NC1CCCc2sccc21 (single isomer, unassigned) [WX024A] | 525 | – |
| O=C(Nc1ccc(Cl)c(S(=O)(=O)C2CC2)c1O)N[C@@H]1CCCc2sccc21 (single isomer, unassigned) [WX025B] | 139 | – |
| O=C(Nc1ccc(Cl)c(S(=O)(=O)C2CC2)c1O)N[C@H]1CCCc2ccsc21 (single isomer, unassigned) [WX027A] | 269 | – |
| Cc1cc2c(o1)C(NC(=O)Nc1ccc(Cl)c(S(=O)(=O)[C@H]3CCCNC3)c1O)CCC2 (single isomer, unassigned) [WX029B] | 245 | – |
| O=C(Nc1ccc(Cl)c(S(=O)(=O)[C@H]2CCCNC2)c1O)NC1CCCc2cc(C(F)(F)F)oc21 (single isomer, unassigned) [WX030B] | 22 | Kp [2]: 2.17 |
| CC(C)S(=O)(=O)c1c(Cl)ccc(NC(=O)N[C@H]2CCCc3ccoc32)c1O [WX003A] | 17 | clearance [1]: 11.2 mL/min/kg; half-life [1]: 2.22 h; AUC [1]: 12.7 µM·h; bioavailability [1]: 70.3% |
| CS(=O)(=O)c1c(Cl)ccc(NC(=O)N[C@H]2CCCc3ccoc32)c1O [WX008A] | 122 | – |
| O=C(Nc1ccc(Cl)c(S(=O)(=O)C2CCCC2)c1O)N[C@H]1CCCc2ccoc21 [WX010A] | 61 | – |
| O=C(Nc1ccc(Cl)c(S(=O)(=O)C2CCCCC2)c1O)N[C@H]1CCCc2ccoc21 [WX011A] | 70 | – |
| O=C(Nc1ccc(Cl)c(S(=O)(=O)CC(F)(F)F)c1O)N[C@H]1CCCc2ccoc21 [WX012A] | 17 | clearance [1]: 15.8 mL/min/kg; half-life [1]: 0.94 h; AUC [1]: 9.39 µM·h; bioavailability [1]: 82.5% |
| O=C(Nc1ccc(Cl)c(S(=O)(=O)CCN2C(=O)c3ccccc3C2=O)c1O)NC1CCCc2ccoc21 (stereo not shown) [WX014] | 232 | – |
| O=C(Nc1ccc(Cl)c(S(=O)(=O)C2CC2)c1O)NC1CCCc2ncsc21 (stereo not shown) [WX028] | 472 | – |
| O=C(Nc1ccc(Cl)c(S(=O)(=O)C2CC2)c1O)NC1CCCc2cc(C(F)(F)F)oc21 (stereo not shown) [WX032] | 144 | – |

Now from value to compound, other results behind:

| IC50 (CXCR2) [nM] | SMILES | further results |
| --- | --- | --- |
| 152 | O=C(Nc1ccc(Cl)c(S(=O)(=O)[C@H]2CCCNC2)c1O)NC1CCCc2occc21 (single isomer, unassigned) [WX001A] | – |
| 45 | CC(C)S(=O)(=O)c1c(Cl)ccc(NC(=O)NC2CCCc3occc32)c1O (single isomer, unassigned) [WX002A] | – |
| 43 | CC(C)(C)OC(=O)N1CCC[C@H](S(=O)(=O)c2c(Cl)ccc(NC(=O)NC3CCCc4ccoc43)c2O)C1 (single isomer, unassigned) [WX004A] | – |
| 14 | CC(C)(C)S(=O)(=O)c1c(Cl)ccc(NC(=O)NC2CCCc3ccoc32)c1O (single isomer, unassigned) [WX005A] | – |
| 22 | O=C(Nc1ccc(Cl)c(S(=O)(=O)C2CC2)c1O)NC1CCCc2ccoc21 (single isomer, unassigned) [WX006A] | clearance [1]: 8.3 mL/min/kg; half-life [1]: 3.09 h; AUC [1]: 20.1 µM·h; bioavailability [1]: 83.8% |
| 42 | CCS(=O)(=O)c1c(Cl)ccc(NC(=O)NC2CCCc3ccoc32)c1O (single isomer, unassigned) [WX007A] | – |
| 14 | O=C(Nc1ccc(Cl)c(S(=O)(=O)[C@H]2CCCNC2)c1O)NC1CCCc2ccoc21 (single isomer, unassigned) [WX013A] | clearance [1]: 30.8 mL/min/kg; half-life [1]: 2.21 h; AUC [1]: 4.44 µM·h; bioavailability [1]: 75.5% |
| 134 | O=C(Nc1ccc(Cl)c(S(=O)(=O)CCNC(=O)C2CC2)c1O)NC1CCCc2ccoc21 (single isomer, unassigned) [WX016A] | – |
| 72 | COC(=O)NCCS(=O)(=O)c1c(Cl)ccc(NC(=O)NC2CCCc3ccoc32)c1O (single isomer, unassigned) [WX017A] | – |
| 133 | O=C(CS(=O)(=O)c1c(Cl)ccc(NC(=O)NC2CCCc3ccoc32)c1O)NCC(F)(F)F (single isomer, unassigned) [WX018A] | – |
| 667 | O=C(Nc1ccc(Cl)c(S(=O)(=O)C2CCCNC2)c1O)NC1CCCc2sccc21 (single isomer, unassigned) [WX024B] | – |
| 2 | Cc1cc2c(o1)C(NC(=O)Nc1ccc(Cl)c(S(=O)(=O)[C@H]3CCCNC3)c1O)CCC2 (single isomer, unassigned) [WX029A] | – |
| 177 | O=C(Nc1ccc(Cl)c(S(=O)(=O)C2CCC2)c1O)NC1CCCc2ccoc21 (stereo not shown) [WX009] | – |
| 186 | NCCS(=O)(=O)c1c(Cl)ccc(NC(=O)NC2CCCc3ccoc32)c1O (stereo not shown) [WX015] | – |
| 15 | Cc1cc2c(o1)C(NC(=O)Nc1ccc(Cl)c(S(=O)(=O)[C@H]3CCCNC3)c1O)CCC2 (stereo partly shown) [WX029] | – |
| 6 | Cc1cc2c(o1)C(NC(=O)Nc1ccc(Cl)c(S(=O)(=O)C3CC3)c1O)CCC2 (stereo not shown) [WX033] | – |
| 55 | CC(C)S(=O)(=O)c1c(Cl)ccc(NC(=O)NC2CCCc3cc(C(F)(F)F)oc32)c1O (stereo not shown) [WX034] | – |
| 23 | CC1(C)NCCCC1S(=O)(=O)c1c(Cl)ccc(NC(=O)NC2CCCc3ccoc32)c1O (stereo not shown) [WX036] | – |

— patent US11136315B2, “CXCR2 antagonist” (MEDSHINE DISCOVERY INC., priority 2018, dated 2021)
